Experimental data from article PMC11173677, “Identification and Evaluation of Olive Phenolics in the Context of Amine Oxidase Enzyme Inhibition and Depression: In Silico Modelling and In Vitro Validation” (Molecules, 2024).

Experiments:
purified LSD1 = purified LSD1 (Homo sapiens, UniProt O60341); assay: LSD1 direct screening assay (Epigentek inhibitory screening kit); assay type: biochemical; conditions: direct incubation with purified LSD1, Epigentek kit; read-out: IC50, inhibition of LSD1
Procedure: Fluorescence was measured using a CLARIOstar Plus Microplate Reader (BMG Labtech, Ortenberg, Germany) at excitation and emission wavelengths of 530 nm and 590 nm, respectively (Ex/Em = 530/590 nm).

H3K4 mono-methylation = H3K4 mono-methylation in BJ cells (Western blotting); assay type: cell-based, human; conditions: 50 μM, 48 h, compared to untreated cells; effects more pronounced with DEX
Procedure: As described in the Supplementary Information, nuclear proteins extracted from the BJ cultures were directly assayed for LSD1 activity (Epigentek P-3076, Farmingdale, NY, USA). Fluorescence was read on a CLARIOstar Microplate Reader (BMG Labtech, Ortenberg, Germany) at Ex/Em = 530/590 nm (Figure S4). Histone proteins were extracted from the treated cultures and were analysed through Western blotting. The mono-methylation status of lysine on histone 3 (H3K4) was determined via immunodetection (Table S6).
100µL of Nuclear Extraction Buffer containing 0.2µL 1M DTT and 0.4µL PIC was then added to the remaining nuclei-containing pellets. Full resuspension was achieved through multiple rounds of vigorous vortexing and ice incubations (to maintain protein integrity). Once the entire pellet was visibly resuspended in NEB, tubes were centrifuged at 16,000g for 10 minutes. The resulting supernatant containing the nuclear extract fraction was transferred to clean 0.5mL tubes and stored at -80°C.
Acid extraction of histone proteins
Cells were washed in 10mL of pre-chilled PBS (1X) and detached from flask surface via mechanical disruption using a cell scraper. Cell solution was then transferred into a 15mL tube and centrifuged at 150g for 10 minutes. Supernatant was then discarded and the remaining cell pellet resuspended in 0.5mL PBS (1X) and transferred into a 1.5mL microcentrifuge tube. Cells were then centrifuged at 9400g for 20 seconds, after which the supernatant was removed and discarded. The remaining pellet was then briefly resuspended in 600µL of acid extraction lysis buffer (10mM KCl, 10mM HEPES, […]) containing cOmplete™ Mini Protease Inhibitor Cocktail (Sigma-Aldrich, Roche 11836153001, MO USA) and 0.3µL 1M DTT. This will cause cells to pre-swell, resulting in a reduced amount of PBS (1X) remaining in the microcentrifuge tube that may deter maximal cell lysis capacity. Cells were then centrifuged at 9400g for 20 seconds with the resultant supernatant aspirated and discarded. […]

total MAO = assay: Total MAO activity assay in corticosteroid-stimulated BJ cells; assay type: cell-based, human; conditions: then 50 μM compound 24 h
Procedure: The BJ cells were subsequently incubated with 10 μM HC or 100 μM DEX to stimulate MAO expression. […] The untreated BJ cells received normal growth medium. The cells were collected, homogenised, and analysed through Western blotting where the expression of MAO-A/B was determined through immunodetection of protein subtypes.
(§1) Activity assays were commercially sourced from BioVision (Abcam, BioVision ab241031, Waltham, MA, USA) and were performed according to manufacturer’s instructions. The treatment groups were plated in duplicate on a black, flat 96-well microplate. The cells were homogenised in assay buffer using a microtube mixer at 4 °C and centrifuged at 10,000× g for 10 min. A Bradford assay was performed to determine the total protein concentration within each cell pellet (200 μg/well for BJ cells, 40 μg/well for hESC-derived neurons). Approximately 40 μL of supernatant was loaded into wells along with 10 μL of either […], or assay buffer for total MAO activity. A H2O2 standard was pipetted as supplied and 50 μL of reaction mix was pipetted into all wells. Using a CLARIOstar Plus Microplate Reader, (BMG Labtech, Ortenberg, Germany), fluorescence was measured kinetically at 25 °C for 60 min with Ex/Em = 535/587 nm.

MAO-B = tested on: T1, MAO-B; assay: MAO-B activity assay in hESC-derived neurons stimulated with ATRA; assay type: cell-based, human; conditions: 1 μM ATRA 24 h, then TCP 5 μM, OLC 50 μM or OLP 50 μM for 24 h
T1 construct: endogenous in cells; host or cells: BJ human foreskin fibroblasts stimulated with DEX or HC
Procedure: An in vitro model of MDD was designed for stem cell-derived neuronal cells through incubation of 1 μM all-trans retinoic acid (Sigma-Aldrich PHR1187, St. Louis, MO, USA). All cell treatments were conducted in duplicate and replicated using independently differentiating neuronal plates.
as §1

- IC50 (purified LSD1): 800 nM
SMILES: COC(=O)[C@H](O)CC(=O)OCCc1ccc(O)c(O)c1 [OLP, oleohydroxypyretol]
- baseline levels of H3K4 mono-methylation in BJ cells (H3K4 mono-methylation): increased
- total MAO activity in BJ cells (total MAO; 10 μM HC 5 days): downregulate
- total MAO activity in BJ cells (total MAO; 100 μM DEX 7 days): downregulate
- MAO-B activity in hESC-derived neurons (MAO-B): significantly reduced
